Article PMC5780498, “Discovery of novel bacterial topoisomerase I inhibitors by use of in silico docking and in vitro assays” (Scientific Reports, 2018)
In brackets after ≈: the same amount, converted by molar mass. Entries after “also recorded” stand apart in the source; their conditions may differ.

Each molecule was assayed against T1, E. coli DNA gyrase (Escherichia coli, UniProt P0AES4+P0AES6) (assay: DNA gyrase supercoiling inhibition assay). Conditions: 2 U enzyme, relaxed plasmid, 37 °C 30 min.
T1 construct: purchased New England BioLabs
Type: biochemical
Method: E. coli DNA gyrase was obtained from New England BioLabs. Two units of the enzyme were added to a reaction buffer provided by the manufacturer (35 mM Tris-HCl, pH 8.0, 4 mM MgCl2, 24 mM KCl, 2 mM DTT, 1.75 mM ATP, 5 mM spermidine, 0.1 mg/mL BSA, and 6.5% glycerol). 0.5 µL of the compounds dissolved in DMSO or the solvent alone were added to the enzyme mixture. 300 ng of relaxed covalently closed plasmid DNA was then added for a final volume of 20 µL. The reactions were incubated for 30 minutes at 37 °C before termination by the addition of 4 µL of the SDS stop buffer. The samples were then loaded into a 1% agarose gel and run at 25 V overnight. The experiments were replicated twice.

T1 sequence (P0AES4 whole entry, one chain of several): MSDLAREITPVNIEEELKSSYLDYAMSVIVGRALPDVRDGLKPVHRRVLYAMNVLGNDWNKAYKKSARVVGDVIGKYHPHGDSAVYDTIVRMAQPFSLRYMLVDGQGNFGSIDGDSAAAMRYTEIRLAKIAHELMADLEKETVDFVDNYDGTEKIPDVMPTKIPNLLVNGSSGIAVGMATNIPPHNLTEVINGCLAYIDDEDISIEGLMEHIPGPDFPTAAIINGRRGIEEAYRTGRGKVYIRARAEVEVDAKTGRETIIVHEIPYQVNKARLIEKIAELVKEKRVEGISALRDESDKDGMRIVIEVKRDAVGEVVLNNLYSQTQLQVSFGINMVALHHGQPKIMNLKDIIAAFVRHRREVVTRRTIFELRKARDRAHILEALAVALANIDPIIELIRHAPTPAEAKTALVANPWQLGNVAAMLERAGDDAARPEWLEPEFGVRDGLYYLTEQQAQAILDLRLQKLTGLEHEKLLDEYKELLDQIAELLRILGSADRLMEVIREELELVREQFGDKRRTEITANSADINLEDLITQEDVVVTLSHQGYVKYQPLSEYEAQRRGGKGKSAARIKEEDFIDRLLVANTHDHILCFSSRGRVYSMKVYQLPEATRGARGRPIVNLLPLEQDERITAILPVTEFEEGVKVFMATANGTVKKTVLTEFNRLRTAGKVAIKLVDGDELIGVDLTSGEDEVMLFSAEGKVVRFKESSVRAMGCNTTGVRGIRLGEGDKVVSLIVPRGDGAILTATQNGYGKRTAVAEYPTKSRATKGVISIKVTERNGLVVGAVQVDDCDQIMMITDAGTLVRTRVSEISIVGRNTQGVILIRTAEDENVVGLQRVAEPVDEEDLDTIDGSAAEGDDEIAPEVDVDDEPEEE

| Compound | IC50 [µM] |
| --- | --- |
| Cc1cc2oc(C(=O)N3CCC(c4nc5ccccc5[nH]4)CC3)c(C)c2cc1C [Compound 8] | > 500 |
| Cc1ccc2[nH]c(C3CCN(C(=O)c4oc5ccc(C)cc5c4C)CC3)nc2c1 [Compound 9] | > 500 |
| Cc1ccc2oc(C(=O)N3CCC(O)(c4cccc(C(F)(F)F)c4)CC3)c(C)c2c1 [Compound 10] | > 500 |
| Cc1c(C(=O)N2CCCCC2CCc2ccc(O)cc2)oc2c(F)cccc12 (centres unmarked) [Compound 11] | > 500 |
| Cc1ccc2c(C)c(C(=O)N3CCC4(CC(=O)c5ccccc5O4)C3)oc2c1 (centres unmarked) [Compound 12] | > 500 |

Same assay, conditions: up to 500 µM

| Compound | Inhibition of E. coli DNA gyrase supercoiling activity (in words) |
| --- | --- |
| Cc1ccc(CN2C[C@]34C=C[C@H](O3)C(C(=O)N3CCn5cccc5C3)C4C2=O)cc1C (some centres unmarked) [Compound 7] | no inhibition; also recorded: does not inhibit |

What follows are molecules tested on M. smegmatis transformed with cloning vector (MnoI strain) (assay: microbe, parasite or virus in culture). Conditions: Mycolicibacterium smegmatis, 48 h, read-out: MnoI Growth Inhibition (MIC).
Type: cell-based, Mycobacterium smegmatis

| Compound | MIC [µM] |
| --- | --- |
| Cc1c(C(=O)N2CCC(c3nnc(-c4nccc5ccccc45)o3)CC2)oc2ccccc12 [Compound 2] | 188 (≈ 82.2 µg/mL) |
| COc1ccc2c(c1)NC1(CCN(C(=O)Cc3c[nH]c4ccccc34)CC1)NS2(=O)=O [Compound 3] | 250 (≈ 110 µg/mL) |
| Cc1ccc(CN2C[C@]34C=C[C@H](O3)C(C(=O)N3CCn5cccc5C3)C4C2=O)cc1C (some centres unmarked) [Compound 7] | > 500 |
| Cc1cc2oc(C(=O)N3CCC(c4nc5ccccc5[nH]4)CC3)c(C)c2cc1C [Compound 8] | > 500 |
| Cc1ccc2[nH]c(C3CCN(C(=O)c4oc5ccc(C)cc5c4C)CC3)nc2c1 [Compound 9] | 125 (≈ 48.4 µg/mL) |
| Cc1ccc2oc(C(=O)N3CCC(O)(c4cccc(C(F)(F)F)c4)CC3)c(C)c2c1 [Compound 10] | 125 (≈ 52.2 µg/mL) |
| Cc1c(C(=O)N2CCCCC2CCc2ccc(O)cc2)oc2c(F)cccc12 (centres unmarked) [Compound 11] | 500 (≈ 191 µg/mL) |
| Cc1ccc2c(C)c(C(=O)N3CCC4(CC(=O)c5ccccc5O4)C3)oc2c1 (centres unmarked) [Compound 12] | > 500 |

Same assay, conditions: Mycolicibacterium smegmatis, read-out: MnoI Growth Inhibition with TZ (MIC)

| Compound | MIC [µM] |
| --- | --- |
| Cc1c(C(=O)N2CCC(c3nnc(-c4nccc5ccccc45)o3)CC2)oc2ccccc12 [Compound 2] | 31.3 (≈ 13.7 µg/mL) |
| COc1ccc2c(c1)NC1(CCN(C(=O)Cc3c[nH]c4ccccc34)CC1)NS2(=O)=O [Compound 3] | 31.3 (≈ 13.8 µg/mL) |
| Cc1ccc(CN2C[C@]34C=C[C@H](O3)C(C(=O)N3CCn5cccc5C3)C4C2=O)cc1C (some centres unmarked) [Compound 7] | 500 (≈ 209 µg/mL) |
| Cc1cc2oc(C(=O)N3CCC(c4nc5ccccc5[nH]4)CC3)c(C)c2cc1C [Compound 8] | 23.4 (≈ 9.07 µg/mL) |
| Cc1ccc2[nH]c(C3CCN(C(=O)c4oc5ccc(C)cc5c4C)CC3)nc2c1 [Compound 9] | 23.4 (≈ 9.07 µg/mL) |
| Cc1ccc2oc(C(=O)N3CCC(O)(c4cccc(C(F)(F)F)c4)CC3)c(C)c2c1 [Compound 10] | 23.4 (≈ 9.77 µg/mL) |
| Cc1c(C(=O)N2CCCCC2CCc2ccc(O)cc2)oc2c(F)cccc12 (centres unmarked) [Compound 11] | 46.9 (≈ 17.9 µg/mL) |
| Cc1ccc2c(C)c(C(=O)N3CCC4(CC(=O)c5ccccc5O4)C3)oc2c1 (centres unmarked) [Compound 12] | 500 (≈ 188 µg/mL) |

What follows are molecules tested against T2, human topoisomerase I (Homo sapiens, UniProt P11387) (assay: Gel electrophoresis with ethidium bromide of human topoisomerase I reaction products (nicked DNA)). Conditions: gel electrophoresis in the presence of ethidium bromide.
T2 construct: purchased TopoGen
T2 sequence (P11387 1-765): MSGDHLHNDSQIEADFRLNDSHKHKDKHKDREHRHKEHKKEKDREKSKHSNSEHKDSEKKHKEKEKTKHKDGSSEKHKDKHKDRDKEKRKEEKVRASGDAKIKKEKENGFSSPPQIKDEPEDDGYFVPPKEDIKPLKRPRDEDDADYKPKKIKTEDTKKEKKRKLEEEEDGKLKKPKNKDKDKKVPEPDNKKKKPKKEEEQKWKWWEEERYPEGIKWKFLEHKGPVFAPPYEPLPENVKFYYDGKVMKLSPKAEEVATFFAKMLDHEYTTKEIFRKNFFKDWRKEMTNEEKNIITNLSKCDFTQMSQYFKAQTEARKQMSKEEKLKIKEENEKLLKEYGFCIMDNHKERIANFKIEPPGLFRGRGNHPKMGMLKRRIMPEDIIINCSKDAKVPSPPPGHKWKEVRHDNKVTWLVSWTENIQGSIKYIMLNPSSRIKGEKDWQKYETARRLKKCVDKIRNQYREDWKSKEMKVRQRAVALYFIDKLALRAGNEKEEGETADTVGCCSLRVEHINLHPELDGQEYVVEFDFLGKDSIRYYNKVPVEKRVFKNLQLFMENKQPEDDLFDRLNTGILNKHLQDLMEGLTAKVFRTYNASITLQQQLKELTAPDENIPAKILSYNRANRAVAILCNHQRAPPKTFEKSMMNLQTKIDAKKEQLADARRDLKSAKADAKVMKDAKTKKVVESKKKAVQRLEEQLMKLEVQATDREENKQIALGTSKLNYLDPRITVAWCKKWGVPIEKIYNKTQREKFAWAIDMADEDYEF
Type: biochemical

| Compound | Formation of nicked DNA by human topoisomerase I |
| --- | --- |
| CC[C@@]1(O)C(=O)OCc2c1cc1n(c2=O)Cc2cc3ccccc3nc2-1 [camptothecin] | increased nicking of DNA by human topoisomerase I significantly |

The molecules below were run against E. coli topoisomerase I (Escherichia coli, UniProt P06612) (assay: E. coli topoisomerase I relaxation inhibition assay). Conditions: Supplementary Fig. S2.
Type: biochemical

Chain of E. coli topoisomerase I (P06612 whole entry): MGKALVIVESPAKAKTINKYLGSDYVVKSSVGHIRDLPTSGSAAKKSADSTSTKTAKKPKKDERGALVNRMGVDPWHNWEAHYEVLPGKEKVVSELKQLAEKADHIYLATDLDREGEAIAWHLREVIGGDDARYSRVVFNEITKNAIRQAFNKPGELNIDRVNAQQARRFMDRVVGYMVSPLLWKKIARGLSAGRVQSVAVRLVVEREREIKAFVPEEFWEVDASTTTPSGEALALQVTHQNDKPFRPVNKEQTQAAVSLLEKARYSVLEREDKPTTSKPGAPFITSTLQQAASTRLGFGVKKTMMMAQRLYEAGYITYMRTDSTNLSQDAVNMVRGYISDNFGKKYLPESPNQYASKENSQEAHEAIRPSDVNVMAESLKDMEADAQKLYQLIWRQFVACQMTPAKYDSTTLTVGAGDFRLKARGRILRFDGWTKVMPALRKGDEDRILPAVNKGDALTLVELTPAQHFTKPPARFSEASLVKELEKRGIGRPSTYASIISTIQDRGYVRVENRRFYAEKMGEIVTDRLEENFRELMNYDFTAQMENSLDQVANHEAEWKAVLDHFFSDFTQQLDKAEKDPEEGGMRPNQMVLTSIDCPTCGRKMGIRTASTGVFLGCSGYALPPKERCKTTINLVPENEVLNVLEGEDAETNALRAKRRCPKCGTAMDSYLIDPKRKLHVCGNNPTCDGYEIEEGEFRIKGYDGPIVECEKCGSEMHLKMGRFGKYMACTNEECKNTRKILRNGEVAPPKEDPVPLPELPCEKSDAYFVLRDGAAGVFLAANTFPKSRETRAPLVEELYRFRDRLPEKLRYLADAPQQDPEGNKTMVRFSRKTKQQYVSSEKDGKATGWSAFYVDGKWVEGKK

| Compound | Inhibition of E. coli topoisomerase I relaxation activity (in words) |
| --- | --- |
| Cc1ccc(CN2C[C@]34C=C[C@H](O3)C(C(=O)N3CCn5cccc5C3)C4C2=O)cc1C (some centres unmarked) [Compound 7] | inhibited |
| Cc1cc2oc(C(=O)N3CCC(c4nc5ccccc5[nH]4)CC3)c(C)c2cc1C [Compound 8] | inhibited |
| Cc1ccc2[nH]c(C3CCN(C(=O)c4oc5ccc(C)cc5c4C)CC3)nc2c1 [Compound 9] | inhibited |

Same assay, conditions: assay conditions as for MtbTopI

| Compound | IC50 [µM] |
| --- | --- |
| Cc1ccc(CN2C[C@]34C=C[C@H](O3)C(C(=O)N3CCn5cccc5C3)C4C2=O)cc1C (some centres unmarked) [Compound 7] | 15.6 to 31.3 |

These molecules were tested against T3, M. tuberculosis topoisomerase I (MtbTopI) (Mycobacterium tuberculosis, UniProt P9WG49) (assay: MtbTopI relaxation inhibition assay). Conditions: 12.5 nM enzyme, supercoiled pBAD/Thio plasmid, 37 °C 30 min, agarose gel.
T3 construct: made in house
Type: biochemical

T3 sequence (P9WG49 whole entry): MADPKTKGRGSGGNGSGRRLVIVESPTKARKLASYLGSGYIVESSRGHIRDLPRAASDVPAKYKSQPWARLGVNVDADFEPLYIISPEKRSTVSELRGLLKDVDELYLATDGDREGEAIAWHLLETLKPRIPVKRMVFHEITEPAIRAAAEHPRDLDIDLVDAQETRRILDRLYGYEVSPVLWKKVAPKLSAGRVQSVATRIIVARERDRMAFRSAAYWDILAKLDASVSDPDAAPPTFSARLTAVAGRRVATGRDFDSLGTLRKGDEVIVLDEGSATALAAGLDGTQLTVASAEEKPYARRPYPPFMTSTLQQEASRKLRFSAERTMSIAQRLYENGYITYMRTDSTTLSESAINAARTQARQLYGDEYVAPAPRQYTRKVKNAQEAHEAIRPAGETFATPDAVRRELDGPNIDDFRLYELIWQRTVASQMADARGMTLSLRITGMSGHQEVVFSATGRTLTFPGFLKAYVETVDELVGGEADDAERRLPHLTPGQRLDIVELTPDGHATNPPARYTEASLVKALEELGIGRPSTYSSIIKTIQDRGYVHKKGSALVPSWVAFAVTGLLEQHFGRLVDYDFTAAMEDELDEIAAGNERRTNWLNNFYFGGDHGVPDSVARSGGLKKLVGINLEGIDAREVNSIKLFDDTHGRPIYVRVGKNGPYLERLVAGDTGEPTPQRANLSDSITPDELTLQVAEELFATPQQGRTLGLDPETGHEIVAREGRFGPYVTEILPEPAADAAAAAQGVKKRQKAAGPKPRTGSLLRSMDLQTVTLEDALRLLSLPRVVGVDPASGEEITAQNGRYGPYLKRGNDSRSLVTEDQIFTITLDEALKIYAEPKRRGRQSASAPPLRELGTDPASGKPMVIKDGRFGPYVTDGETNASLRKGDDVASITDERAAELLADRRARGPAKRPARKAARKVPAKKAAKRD

| Compound | IC50 [µM] |
| --- | --- |
| Cc1c(C(=O)N2CCC(c3nnc(-c4nccc5ccccc45)o3)CC2)oc2ccccc12 [Compound 2] | 62.5 |
| COc1ccc2c(c1)NC1(CCN(C(=O)Cc3c[nH]c4ccccc34)CC1)NS2(=O)=O [Compound 3] | 62.5 |
| Cc1c(C(=O)N2CCC3(CC2)CC(O)(c2ccc(F)cc2)CO3)oc2ccccc12 (centres unmarked) [Compound 4] | 125 |
| O=C(c1ccc2c(c1)OCO2)N1CCC(Cn2nc(-c3ccc(F)cc3)ccc2=O)CC1 [Compound 5] | 250 |
| O=C(CN1C(=O)C2C3CCC(C3)C2C1=O)N1CCC2(CC1)Nc1ccccc1-n1cccc12 (centres unmarked) [Compound 6] | 500 |
| Cc1ccc(CN2C[C@]34C=C[C@H](O3)C(C(=O)N3CCn5cccc5C3)C4C2=O)cc1C (some centres unmarked) [Compound 7] | 2 |
| Cc1cc2oc(C(=O)N3CCC(c4nc5ccccc5[nH]4)CC3)c(C)c2cc1C [Compound 8] | 62.5 |
| Cc1ccc2[nH]c(C3CCN(C(=O)c4oc5ccc(C)cc5c4C)CC3)nc2c1 [Compound 9] | 62.5 |
| Cc1ccc2oc(C(=O)N3CCC(O)(c4cccc(C(F)(F)F)c4)CC3)c(C)c2c1 [Compound 10] | 62.5 |
| Cc1c(C(=O)N2CCCCC2CCc2ccc(O)cc2)oc2c(F)cccc12 (centres unmarked) [Compound 11] | 62.5 |
| Cc1ccc2c(C)c(C(=O)N3CCC4(CC(=O)c5ccccc5O4)C3)oc2c1 (centres unmarked) [Compound 12] | 62.5 |

The molecules below were run against T4, human topoisomerase I (hTOPI) (Homo sapiens, UniProt P11387) (assay: Human topoisomerase I relaxation inhibition assay). Conditions: 0.5 U enzyme, supercoiled plasmid, 37 °C 30 min.
T4 construct: purchased TopoGen
T4 sequence (P11387 1-765): T2 sequence (P11387 1-765)
Type: biochemical
Method: Human topoisomerase I assays were carried out in a buffer containing 10 mM Tris-HCl, pH 8.0, 150 mM NaCl, 0.1% BSA, 0.1 mM spermidine, and 5% glycerol. The enzyme (from TopoGen) was diluted in the above buffer and aliquoted into 10 µL samples such that 0.5U was present in each. 0.5 µL of compound at various concentrations was added before the addition of 150 ng of purified pBAD/Thio purified plasmid DNA for a final volume of 20 µL. The samples were incubated for 30 minutes at 37 °C before stopping by the addition of 4 µL of buffer containing 5% SDS, 0.25% bromophenol blue, and 25% glycerol. The samples were analyzed by gel electrophoresis as previously described[23],[38],[39]. The experiments were replicated twice.

| Compound | IC50 [µM] |
| --- | --- |
| Cc1c(C(=O)N2CCC(c3nnc(-c4nccc5ccccc45)o3)CC2)oc2ccccc12 [Compound 2] | > 250 |
| COc1ccc2c(c1)NC1(CCN(C(=O)Cc3c[nH]c4ccccc34)CC1)NS2(=O)=O [Compound 3] | > 250 |
| Cc1c(C(=O)N2CCC3(CC2)CC(O)(c2ccc(F)cc2)CO3)oc2ccccc12 (centres unmarked) [Compound 4] | > 250 |
| Cc1ccc(CN2C[C@]34C=C[C@H](O3)C(C(=O)N3CCn5cccc5C3)C4C2=O)cc1C (some centres unmarked) [Compound 7] | > 500 |
| Cc1cc2oc(C(=O)N3CCC(c4nc5ccccc5[nH]4)CC3)c(C)c2cc1C [Compound 8] | > 500 |
| Cc1ccc2[nH]c(C3CCN(C(=O)c4oc5ccc(C)cc5c4C)CC3)nc2c1 [Compound 9] | > 500 |
| Cc1ccc2oc(C(=O)N3CCC(O)(c4cccc(C(F)(F)F)c4)CC3)c(C)c2c1 [Compound 10] | > 500 |
| Cc1c(C(=O)N2CCCCC2CCc2ccc(O)cc2)oc2c(F)cccc12 (centres unmarked) [Compound 11] | 250 |
| Cc1ccc2c(C)c(C(=O)N3CCC4(CC(=O)c5ccccc5O4)C3)oc2c1 (centres unmarked) [Compound 12] | > 500 |

Same assay, conditions: hTOPI IC50/MtbTopI IC50

| Compound | Selectivity Score |
| --- | --- |
| Cc1c(C(=O)N2CCC(c3nnc(-c4nccc5ccccc45)o3)CC2)oc2ccccc12 [Compound 2] | >4 |
| COc1ccc2c(c1)NC1(CCN(C(=O)Cc3c[nH]c4ccccc34)CC1)NS2(=O)=O [Compound 3] | >4 |
| Cc1c(C(=O)N2CCC3(CC2)CC(O)(c2ccc(F)cc2)CO3)oc2ccccc12 (centres unmarked) [Compound 4] | >2 |
